Laboratory results published in patent US11083709B2, “Compounds, compositions, and methods of increasing CFTR activity” (Proteostasis Therapeutics, Inc., priority 2015, dated 2021).

Target: T1, ΔF508-CFTR (Homo sapiens, UniProt P13569, DEL508-508)
T1 construct: primary lung epithelial cells (hBEs) homozygous for the Cystic Fibrosis-causing ΔF508 mutation; endogenous in cells; host or cells: primary lung epithelial cells (hBEs) homozygous for ΔF508
Assay: Ussing measurements, hBEs homozygous for ΔF508
Format: cell-based
Details: compound at 10 uM and VX-809 at 3 uM, relative to VX-809 (3 uM); 24 h treatment
Protocol: As discussed above, Ussing measurements can be used to measure CFTR activity. In this example, primary lung epithelial cells (hBEs) homozygous for the Cystic Fibrosis-causing ΔF508 mutation were differentiated for a minimum of 4 weeks in an air-liquid interface on SnapWell filter plates prior to the Ussing measurements. Cells were apically mucus-washed for 30 minutes prior to treatment with compounds. The basolateral media was removed and replaced with media containing the compound of interest diluted to its final concentration from DMSO stocks. Treated cells were incubated at 37° C. and 5% CO2 for 24 hours. […] The short-circuit current was measured in voltage clamp-mode (Vhold=0 mV), and the entire assay was conducted at a temperature of 36° C.-36.5° C. Once the voltages stabilized, the chambers were clamped, and data was recorded by pulse readings every 5 seconds. Following baseline current stabilization, the following additions were applied and the changes in current and resistance of the cells was monitored: • 1. […]
The inhibitable current (that current that is blocked by CFTRinh-172) is measured as the specific activity of the ΔF508-CFTR channel, and increases in response to compound in this activity over that observed in vehicle-treated samples are identified as the correction of ΔF508-CFTR function imparted by the compound tested. […]

T1 sequence (P13569 with tags, fused parts or gaps DEL508-508): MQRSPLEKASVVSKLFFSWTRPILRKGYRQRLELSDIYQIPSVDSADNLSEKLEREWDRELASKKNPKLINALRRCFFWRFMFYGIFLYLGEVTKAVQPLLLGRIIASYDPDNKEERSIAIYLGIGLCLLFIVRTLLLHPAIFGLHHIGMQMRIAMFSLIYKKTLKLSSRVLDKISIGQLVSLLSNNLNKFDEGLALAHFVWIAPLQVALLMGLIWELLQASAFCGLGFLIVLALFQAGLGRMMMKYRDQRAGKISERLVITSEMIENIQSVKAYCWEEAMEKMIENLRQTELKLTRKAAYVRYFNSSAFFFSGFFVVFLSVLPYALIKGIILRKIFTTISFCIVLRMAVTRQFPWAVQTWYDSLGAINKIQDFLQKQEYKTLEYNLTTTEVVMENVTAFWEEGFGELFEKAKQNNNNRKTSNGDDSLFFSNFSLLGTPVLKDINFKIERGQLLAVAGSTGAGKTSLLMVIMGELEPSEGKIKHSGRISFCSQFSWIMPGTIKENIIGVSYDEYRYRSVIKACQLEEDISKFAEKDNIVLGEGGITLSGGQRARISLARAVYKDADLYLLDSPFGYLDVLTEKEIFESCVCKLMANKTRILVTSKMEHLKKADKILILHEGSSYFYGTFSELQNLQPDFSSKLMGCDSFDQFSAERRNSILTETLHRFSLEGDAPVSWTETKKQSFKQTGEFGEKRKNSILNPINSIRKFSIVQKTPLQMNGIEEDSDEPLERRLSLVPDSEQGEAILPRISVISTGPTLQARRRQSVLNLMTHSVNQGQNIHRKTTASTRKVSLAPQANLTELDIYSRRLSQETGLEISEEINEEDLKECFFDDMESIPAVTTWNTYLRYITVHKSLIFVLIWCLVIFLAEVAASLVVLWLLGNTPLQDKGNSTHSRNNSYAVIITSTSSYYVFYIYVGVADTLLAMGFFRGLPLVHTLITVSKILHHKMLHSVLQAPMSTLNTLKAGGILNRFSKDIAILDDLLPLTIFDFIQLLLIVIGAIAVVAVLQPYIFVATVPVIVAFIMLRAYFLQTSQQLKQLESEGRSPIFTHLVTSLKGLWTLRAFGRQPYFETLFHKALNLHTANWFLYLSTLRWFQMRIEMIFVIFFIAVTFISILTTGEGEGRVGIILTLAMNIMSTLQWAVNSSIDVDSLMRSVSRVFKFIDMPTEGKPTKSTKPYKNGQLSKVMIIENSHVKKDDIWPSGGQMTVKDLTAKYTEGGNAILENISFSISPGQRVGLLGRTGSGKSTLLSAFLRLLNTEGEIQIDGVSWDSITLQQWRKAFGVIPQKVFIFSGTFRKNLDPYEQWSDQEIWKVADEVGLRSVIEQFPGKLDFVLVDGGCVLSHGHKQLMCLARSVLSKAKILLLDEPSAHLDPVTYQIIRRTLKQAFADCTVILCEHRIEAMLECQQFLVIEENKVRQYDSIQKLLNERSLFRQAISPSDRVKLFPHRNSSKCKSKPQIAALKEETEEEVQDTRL

| Compound | Ussing: activity of compound with VX-809, % of VX-809 |
| --- | --- |
| O=C(N[C@H]1C[C@H](n2nncc2CO)C1)c1cc(-c2ccccc2)no1 [Example 5, N-(trans-3-(5-(hydroxymethyl)-1H-1,2,3-triazol-1-yl)cyclobutyl)-3-phenylisoxazole-5-carboxamide] | ## (## indicates activity ≥200% of VX-809 (3 uM) with compound at 10 uM and VX-809 at 3 uM) |

Test system: CFTR in R117H/F508del HBEs
Assay: Ussing measurements, R117H/F508del HBEs
Format: cell-based, human
Details: Ussing; Compound A 10 uM, ivacaftor 1 uM
Protocol: (§1) As discussed above, Ussing measurements was used to measure CFTR activity. In this method, primary lung epithelial cells (hBEs) with a Cystic Fibrosis-causing class III mutation were differentiated for a minimum of 4 weeks in an air-liquid interface on SnapWell™ filter plates prior to the Ussing measurements. Cells were apically mucus-washed for 30 minutes prior to treatment with compounds. The basolateral media was removed and replaced with media containing the compound of interest diluted to its final concentration from DMSO stocks. Treated cells were incubated at 37° C. and 5% CO2 for 24 hours. At the end of the treatment period, the cells on filters were transferred to the Ussing chamber and equilibrated for 30 minutes. The short-circuit current was measured in voltage clamp-mode (Vhold=0 mV), and the entire assay was conducted at a temperature of 36° C.-36.5° C. Once the voltages stabilized, the chambers were clamped, and data was recorded by pulse readings every 5 seconds. Following baseline current stabilization, the following additions were applied and the changes in current and resistance of the cells was monitored: • 1. Benzamil to the apical chamber to inhibit ENaC sodium channel. • 2. Forskolin to both chambers to activate ΔF508-CFTR by phosphorylation. • 3. Ivacaftor or Genistein to the apical chamber to potentiate ΔF508-CFTR channel opening. • 4. CFTRinh-172 to the apical chamber to inhibit ΔF508-CFTR Cl-conductance.
(§2) The forskolin-sensitive current and inhibitable current (that potentiated current that is blocked by CFTRinh-172) were measured as the specific activity of the ΔF508-CFTR channel, and increase in response to compound in this activity over that observed in vehicle-treated samples were identified as the correction of ΔF508-CFTR function imparted by the compound tested.
(§3) The results are shown below in Tables 5 and 6. Compound A is 10 uM and VX-809 is 3 uM and ivacaftor is 1 uM.

| Compound | Activity in R117H/F508del HBEs (relative to ivacaftor activity) [%] |
| --- | --- |
| CC(C)(C)c1cc(C(C)(C)C)c(NC(=O)c2c[nH]c3ccccc3c2=O)cc1O [ivacaftor, reference compound] | 100 |

Target: T1, ΔF508-CFTR
Assay: hBE equivalent current (Ieq) assay, primary lung epithelial cells homozygous for ΔF508
Format: cell-based
Details: compound at 10 uM and VX-809 at 1 uM, relative to VX-809 (1 uM); 24 h treatment
Protocol: Primary lung epithelial cells homozygous for the Cystic Fibrosis-causing ΔF508 mutation were differentiated for a minimum of 4 weeks in an air-liquid interface on Costar 24 well HTS filter plates prior to the equivalent current (Ieq) measurements. Cells were apically mucus-washed for 30 minutes 24h prior to treatment with compounds. The basolateral media was removed and replaced with media containing the compound of interest diluted to its final concentration from DMSO stocks. Treated cells were incubated at 37° C. and 5% CO2 for 24 hours. At the end of the treatment period, the media was changed to the Ieq experimental solution for 30 minutes before the experiment and plates are maintained in a CO2-free incubator during this period. The plates containing the cells were then placed in pre-warmed heating blocks at 36° C.±0.5 for 15 minutes before measurements are taken. The transepithelial voltage (VT) and conductance (GT) were measured using a custom 24 channel current clamp (TECC-24) with 24 well electrode manifold. The Ieq assay measurements were made following additions with standardized time periods: • 1. The baseline VT and GT values were measured for approximately 20 minutes. • 2. Benzamil was added to block ENaC for 15 minutes. • 3. Forskolin plus VX-770 (ivacaftor) were added to maximally activate ΔF508-CFTR for 27 minutes. • 4. Bumetanide was added to inhibit the NaK2Cl cotransporter and shut-off secretion of chloride.
The activity data captured was the area under the curve (AUC) for the traces of the equivalent chloride current. The AUC was collected from the time of the forskolin/VX-770 addition until the inhibition by bumetanide addition. Correction in response to compound treatment was scored as the increase in the AUC for compound-treated samples over that of vehicle-treated samples.
The results are shown below in Table 2. ++ indicates activity ≥25% run at 10 uM of VX-809 at 1 uM, + indicates activity 10 to <25% run at 10 uM of VX-809 at 1 uM, ** indicates activity ≥200% of VX-809 (1 uM) with compound at 10 uM and VX-809 at 1 uM; * indicates activity 100-200% of VX-809 (1 uM) with compound at 10 uM and VX-809 at 1 uM. ^## indicates activity ≥200% of VX-809 (3 uM) with compound at 10 uM and VX-809 at 3 uM; ^# indicates activity 100-200% of VX-809 (3 uM) with compound at 10 uM and VX-809 at 3 uM.

| Compound | leq: activity of compound with VX-809, % of VX-809 (AUC of equivalent chloride current) |
| --- | --- |
| C[C@@H](O)c1nnc(CC2CC(NC(=O)c3cc(-c4ccccc4)no3)C2)s1 (stereo partly drawn) [Example 41, 3-Phenyl-N-[(1s,3s)-3-([5-[(1R)-1-hydroxyethyl]-1,3,4-thiadiazol-2-yl]methyl)cyclobutyl]-1,2-oxazole-5-carboxamide] | ** (** indicates activity ≥200% of VX-809 (1 uM) with compound at 10 uM and VX-809 at 1 uM) |
| C[C@@H](O)c1nnc(CC2CC(NC(=O)c3cc(-c4ccccc4)no3)C2)s1 (stereo partly drawn) [Example 42, 3-Phenyl-N-[(1r,3r)-3-([5-[(1R)-1-hydroxyethyl]-1,3,4-thiadiazol-2-yl]methyl)cyclobutyl]-1,2-oxazole-5-carboxamide] | * (* indicates activity 100-200% of VX-809 (1 uM) with compound at 10 uM and VX-809 at 1 uM) |
| C[C@@H](O)c1nnc(CC2CC(NC(=O)c3cc(-c4ccc(F)cc4)no3)C2)s1 (stereo partly drawn) [Example 43, 3-(4-Fluorophenyl)-N-[(1s,3s)-3-([5-[(1R)-1-hydroxyethyl]-1,3,4-thiadiazol-2-yl]methyl)cyclobutyl]-1,2-oxazole-5-carboxamide] | ** (** indicates activity ≥200% of VX-809 (1 uM) with compound at 10 uM and VX-809 at 1 uM) |
| C[C@@H](O)c1nnc(CC2CC(NC(=O)c3cc(-c4ccc(F)cc4)no3)C2)s1 (stereo partly drawn) [Example 44, 3-(4-Fluorophenyl)-N-[(1r,3r)-3-([5-[(1R)-1-hydroxyethyl]-1,3,4-thiadiazol-2-yl]methyl)cyclobutyl]-1,2-oxazole-5-carboxamide] | ** (** indicates activity ≥200% of VX-809 (1 uM) with compound at 10 uM and VX-809 at 1 uM) |
| C[C@@H](O)c1nnc(C[C@H]2C[C@@H](NC(=O)c3cc(-c4cccs4)no3)C2)o1 [Example 45, N-[(1s,3s)-3-([5-[(1R)-1-Hydroxyethyl]-1,3,4-oxadiazol-2-yl]methyl)cyclobutyl]-3-(thiophen-2-yl)-1,2-oxazole-5-carboxamide] | * (* indicates activity 100-200% of VX-809 (1 uM) with compound at 10 uM and VX-809 at 1 uM) |
| C[C@@H](O)c1nnc(C[C@H]2C[C@H](NC(=O)c3cc(-c4cccs4)no3)C2)o1 [Example 46, N-[(1r,3r)-3-([5-[(1R)-1-Hydroxyethyl]-1,3,4-oxadiazol-2-yl]methyl)cyclobutyl]-3-(thiophen-2-yl)-1,2-oxazole-5-carboxamide] | * (* indicates activity 100-200% of VX-809 (1 uM) with compound at 10 uM and VX-809 at 1 uM) |
| C[C@@H](O)c1nnc([C@H]2C[C@H](NC(=O)c3onc(-c4ccccc4)c3F)C2)o1 [Example 50, 4-Fluoro-3-phenyl-N-[(1r,3r)-3-[5-[(1R)-1-hydroxyethyl]-1,3,4-oxadiazol-2-yl]cyclobutyl]-1,2-oxazole-5-carboxamide] | * (* indicates activity 100-200% of VX-809 (1 uM) with compound at 10 uM and VX-809 at 1 uM) |
| C[C@H](O)c1cnnn1C[C@H]1C[C@@H](NC(=O)c2cc(-c3ccccc3)no2)C1 [Example 57, 3-Phenyl-N-[(1s,3s)-3-([5-[(1S)-1-hydroxyethyl]-1H-1,2,3-triazol-1-yl]methyl)cyclobutyl]-1,2-oxazole-5-carboxamide] | ** (** indicates activity ≥200% of VX-809 (1 uM) with compound at 10 uM and VX-809 at 1 uM) |
| C[C@H](O)c1cn(C[C@H]2C[C@@H](NC(=O)c3cc(-c4ccccc4)no3)C2)nn1 [Example 58, 3-Phenyl-N-[(1s,3s)-3-([4-[(1S)-1-hydroxyethyl]-1H-1,2,3-triazol-1-yl]methyl)cyclobutyl]-1,2-oxazole-5-carboxamide] | * (* indicates activity 100-200% of VX-809 (1 uM) with compound at 10 uM and VX-809 at 1 uM) |

Test system: CFTR in G551D/F508del HBEs
Assay: Ussing measurements, G551D/F508del HBEs
Format: cell-based, human
Details: Ussing; Compound A 10 uM, ivacaftor 1 uM
Protocol: as §1, §2, §3

| Compound | Activity in G551D/F508del HBEs (relative to ivacaftor activity) [%] |
| --- | --- |
| CC(C)(C)c1cc(C(C)(C)C)c(NC(=O)c2c[nH]c3ccccc3c2=O)cc1O [ivacaftor, reference compound] | 100 |
